Test results reported in PubChem BioAssay (NCI).
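Growth conditions: 96-well plates. Treatment: test compound, 48 hours, 5 concentrations. Analysis: linear interpolation between bracketing concentrations; unreached endpoints set to highest concentration. GI50 is the concentration that inhibits growth by half. TGI denotes the concentration required for complete inhibition of growth.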

Columns and labels:
Test in all cases: NCI tumour cell line growth inhibition, 48 h
HCT-15 colon = tested on: HCT-15 colon
PC-3 prostate = tested on: PC-3 prostate
IGROV1 ovarian = tested on: IGROV1 ovarian
SF-268 CNS = tested on: SF-268 CNS
SW-620 colon = tested on: SW-620 colon
COLO 205 colon = tested on: COLO 205 colon
CAKI-1 renal = tested on: CAKI-1 renal
SF-539 CNS = tested on: SF-539 CNS
U251 CNS = tested on: U251 CNS
NCI-H226 lung = tested on: NCI-H226 lung

Row | SMILES | GI50 (HCT-15 colon) [µM] | TGI (HCT-15 colon) [µM] | GI50 (PC-3 prostate) [µM] | TGI (PC-3 prostate) [µM] | GI50 (IGROV1 ovarian) [µM] | TGI (IGROV1 ovarian) [µM] | GI50 (SF-268 CNS) [µM] | TGI (SF-268 CNS) [µM] | GI50 (SW-620 colon) [µM] | TGI (SW-620 colon) [µM] | GI50 (COLO 205 colon) [µM] | TGI (COLO 205 colon) [µM] | GI50 (CAKI-1 renal) [µM] | TGI (CAKI-1 renal) [µM] | GI50 (SF-539 CNS) [µM] | TGI (SF-539 CNS) [µM] | GI50 (U251 CNS) [µM] | TGI (U251 CNS) [µM] | TGI (NCI-H226 lung) [µM]
1 | O=C(/C=C/N1CCN(c2cccc(C(F)(F)F)c2)CC1)c1ccc(Cl)cc1Cl | 26.8 | 53.9 | 31.7 | > 100 | 30 | 58.2 | 28.6 | 88.8 | 38.8 | > 100 | 36.2 | > 100 | 22.7 | 41.3 | 24.8 | 51.3 | 26.1 | 59.8 | –
2 | Clc1ccc2c(Cl)ncnc2c1 | – | > 100 | – | – | – | > 100 | – | > 100 | – | > 100 | – | > 100 | – | > 100 | – | > 100 | – | > 100 | > 100
3 | Brc1ccc2c(c1)C1(c3cc(Br)ccc3-2)c2cc(Br)ccc2-c2ccc(Br)cc21 | – | > 100 | – | – | – | > 100 | – | > 100 | – | > 100 | – | > 100 | – | > 100 | – | > 100 | – | > 100 | > 100
4 | COc1ccc2cccc(C(=N)c3ccc(C)c4c3CCC4)c2c1 | – | 20.6 | – | – | – | 19.2 | – | 31.8 | – | 18.7 | – | 25.9 | – | 16.1 | – | – | – | 21.4 | 26.9
5 | COc1ccc([Se]c2ccc(OC)cc2OC)c(OC)c1 | – | – | – | – | – | 59.9 | – | > 100 | – | > 100 | – | 27.1 | – | > 100 | – | > 100 | – | > 100 | 83.3
6 | CC1CCC(O)C(C(O)CC2CC(=O)N(C)C(=O)C2)C1 (stereo not given) | – | – | – | – | – | > 100 | – | > 100 | – | > 100 | – | > 100 | – | > 100 | – | > 100 | – | > 100 | > 100
7 | CC[C@]12C=CCN3CC[C@]4(C(=C(C(=O)OC)C1)Nc1cc(O)ccc14)[C@@H]32 | 14.6 | 36.5 | 21.2 | 50.5 | 19.1 | 57.3 | 20.7 | 53.2 | 16.3 | 36.6 | 21.8 | 47.3 | 14.1 | 37.1 | 15.1 | 30.1 | 15.6 | 36.9 | –
8 | O=C1[C@H]2C(c3ccccc3)=NN(C(=O)c3ccccc3)[C@H]2C(=O)N1c1ccccc1 | – | > 100 | – | – | – | > 100 | – | – | – | > 100 | – | > 100 | – | – | – | > 100 | – | > 100 | > 100
9 | COc1cc2ccn3c4cc(OC)c(OC)cc4cc3c2cc1OC | – | – | – | – | – | – | – | > 100 | – | > 100 | – | > 100 | – | > 100 | – | – | – | > 100 | > 100
10 | O=C1c2ccccc2-c2cc3ccccc3c(=O)n21 | – | > 100 | – | > 100 | – | > 100 | – | > 100 | – | > 100 | – | > 100 | – | – | – | > 100 | – | – | –
11 | CCC1OCCN1C(C)C (stereo not given) | – | > 100 | – | – | – | > 100 | – | > 100 | – | > 100 | – | > 100 | – | – | – | > 100 | – | > 100 | –
